Where “and” joins values, the source holds several entries; their conditions need not be identical. Equal entries are not always repeated. Structures can show the parent of a compound that is named as a salt. Where two headings read alike, the source gives them in different places.
Assays:
serum FSH = assay: Androxal vs Androgel in hypogonadal men: serum FSH; format: in vivo, human; settings: two weeks treatment and follow-up
Experimental: (§1) Half of the men in each of the Androxal™ and placebo arms were randomized into cohorts that underwent in-clinic sessions on days 1 and 14 to determine pharmacokinetic parameters for Androxal™ as well as cyclical changes in testosterone. The placebo and Androxal™ doses were administered in a double blind fashion. […] Following the two week drug exposure patients were followed for an additional seven to ten days to determine the status of their testosterone levels.

LH and FSH = assay: Androxal vs Testim, 6 month spermatogenesis trial: LH and FSH; format: in vivo, human; settings: secondary hypogonadal men, 3 and 6 months of therapy
Experimental: (§2) The mean age of the subjects was 46 years and mean body weight was 233 pounds. […] Subjects were required to discontinue topical exogenous testosterone for at least 30 days prior to receiving study medication. Effects of the treatment on sperm parameters associated with fertility as well as on FSH and LH levels were evaluated following 3 and 6 months of therapy and one month after cessation of treatment. Semen analysis included semen volume, total sperm count, sperm concentration, percent motility and percent normal morphology. There were 6 laboratory visits including a screening (V1), baseline (V2) and post first dose visits at 1 month (V3), 3 months (V4) and 6 months (V5) as well as a one month post therapy follow-up visit (V6).

triglycerides = assay: Androxal vs Androgel in hypogonadal men: triglycerides; format: in vivo, human; settings: men on Androxal, non-dose dependent, after two weeks of therapy
Experimental: as §1

morning testosterone = assay: Androxal vs Testim, three month placebo-controlled trial: morning testosterone; format: in vivo, human; settings: for Median Morning Testosterone, Baseline T: before dosing; for Median Morning Testosterone, Baseline T / Median Morning Testosterone, Final T: no unit in table; for Median Morning Testosterone, Final T: end of three month dosing
Experimental: (§3) Over 900 men were screened to achieve a total of 108 men who met all criteria and were enrolled in the study. All 108 men enrolled in the study satisfied the requirement of at least one dose and one visit in which efficacy measures could be assessed. The subjects were randomized into four groups: (i) placebo; (ii) 12.5 mg Androxal; (iii) 25 mg Androxal; and (iv) Testim. There was no statistical difference among the groups in testosterone at baseline.

[1] = tested on: serum dihydroxytestosterone (DHT); assay: Androxal vs Androgel in hypogonadal men: DHT to total testosterone ratio; format: in vivo, human; settings: men on Androxal 50 mg; placebo group ratio 1.07
Experimental: as §1

[2] = Androxal vs Androgel in hypogonadal men: side effects; settings: two week exposure
Experimental: as §1

sperm counts = assay: Androxal vs Testim, three month trial: sperm counts; format: in vivo, human
Experimental: as §3
Sperm counts were assessed at baseline and after dosing was completed. Spermatogenesis is approximately a 64 day cycle and detection of early changes after 3 months of treatment would be expected. At baseline, the median values of all four arms were above the generally accepted lower level of sperm counts for normal males (20 million sperm per ml). […] The median sperm count for the men in the combined Androxal arms was 93.8 million sperm/ml (p value=0.001 compared to Testim). […] No drug related serious adverse effects occurred that led to discontinuation.

serum LH = assay: Androxal vs Androgel in hypogonadal men: serum LH; format: in vivo, human
Experimental: as §1

testosterone = settings: for 24 hr T <300 ng/dl @ Week 6 / Any T >1100 ng/dl @ Week 6: number of men
Experimental: Sixty men with testosterone levels not exceeding 350 ng/dl were enrolled in the study and randomized to one of four parallel arms: (i) 6.25 mg Androxal (ii) 12.5 mg Androxal (iii) 25 mg Androxal or (iv) Androgel. The average age of men in the study was 53.1 (10.1) and their average body mass index (BMI) was 31.8 (6.1). The men were dosed for 6 weeks and then followed for an additional 7 days after cessation of treatment. Subjects in all arms visited the clinic every 2 weeks for assessments. Twenty-four hour assessments were made at baseline before dosing commenced and after 6 weeks of treatment, at which point testosterone and LH were assessed hourly.

serum testosterone = assay: Androxal vs Testim, 6 month spermatogenesis trial: serum testosterone; format: in vivo, human; settings: after 3 months of treatment, sustained for another 3 months
Experimental: as §2

total testosterone = assay: Placebo controlled study of Androxal vs Androgel in hypogonadal men: testosterone; format: in vivo, human; settings: for mean increase in testosterone from baseline: oral, two weeks
Experimental: as §1

[3] = Androxal vs Testim, 6 month spermatogenesis trial: tolerability; format: in vivo, human; settings: 6 months of drug therapy
Experimental: as §2

[4] = Androxal vs Testim, three month trial: tolerability; format: in vivo, human; settings: both doses (12.5 and 25 mg), three months
Experimental: as §3

total serum testosterone = settings: for effect on total serum testosterone (in words): baboons; for effect on total serum testosterone (in words) / Serum Testosterone Levels, 12 days, group mean: 1.5 mg/kg for 12 days; for Serum Testosterone Levels, 6 days / Serum Testosterone Levels, 12 days / Serum Testosterone Levels, wash-out / Serum Testosterone Levels, baseline / Serum Testosterone Levels, 0 day: individual baboon; for Serum Testosterone Levels, 6 days / Serum Testosterone Levels, 6 days, group mean: 1.5 mg/kg daily, day 6; for Serum Testosterone Levels, 6 days / Serum Testosterone Levels, 12 days: 1.5 mg/kg; for Serum Testosterone Levels, 12 days: 1.5 mg/kg for 12 consecutive days; for Serum Testosterone Levels, 12 days / Serum Testosterone Levels, 12 days, group mean: day 12; for Serum Testosterone Levels, wash-out / Serum Testosterone Levels, wash-out, group mean: 7 days after the last treatment; for Serum Testosterone Levels, baseline: baseline Dec. 3, 2001, before treatment; for Serum Testosterone Levels, 0 day / Serum Testosterone Levels, 0 day, group mean: day 0, before first dose; for Serum Testosterone Levels, 6 days, group mean / Serum Testosterone Levels, 12 days, group mean / Serum Testosterone Levels, wash-out, group mean / Serum Testosterone Levels, baseline, group mean / Serum Testosterone Levels, 0 day, group mean: mean of 3 baboons; for Serum Testosterone Levels, baseline, group mean: before treatment
Excerpt: (§4) The samples analyzed were sera taken on the day of first treatment before being given test article (day 0), after 12 days of treatment (day 12) and 7 days after the last treatment (end or wash-out).

serum cholesterol = settings: baboons, 1.5 mg/kg for 12 days
serum prolactin (PRL) = assay: Serum prolactin in male baboons; settings: 1.5 mg/kg for 12 days
Excerpt: as §4

[5] = three month dosing, Androxal arms combined, Testim arm

In the case of `CCN(CC)CCOc1ccc(/C(=C(\Cl)c2ccccc2)c2ccccc2)cc1` [Androxal™, trans-clomiphene], the “serum levels of FSH” value (serum FSH) was “boosts serum FSH which remains high during the follow-up period”, the “LH and FSH levels” value (LH and FSH) was “significantly increased both LH and FSH” and the “reduction in triglycerides, average” value (triglycerides) was 19.1%. The “Median Morning Testosterone, Baseline T” value (morning testosterone; Androxal 12.5 mg (n = 26), text uses ng/dl) was 202, the “Median Morning Testosterone, Final T” value (morning testosterone; Androxal 12.5 mg (n = 26)) was 432 and the “Median Morning Testosterone, Baseline T” value (morning testosterone; Androxal 25 mg (n = 30)) was 202. For the same molecule, the “Median Morning Testosterone, Final T” value (morning testosterone; Androxal 25 mg (n = 30)) was 416, the “men exceeding the normal maximum level of testosterone (1100 ng/dl)” value (morning testosterone; [5]) was “no men” and the “men in the normal range for morning testosterone levels (300-1100 ng/dl)” value (morning testosterone; [5]) was 69.9%. The DHT/TT ratio [1] was 0.83, the “side effects different than placebo” value [2] was “no side effects noted” and the “change in sperm counts from baseline (in words)” value (sperm counts; end of the three month dosing period) was “no statistically significant changes”. For the same molecule, the median sperm count (sperm counts; end of three month dosing, Androxal arms combined, Testim arm) was 93.8 million sperm/ml, the “serum LH in the follow-up period” value (serum LH; 7-10 days after cessation of treatment) was “remained high” and the “serum levels of LH during treatment” value (serum LH; hypogonadal men, two weeks treatment) was “statistically significant increase”. The “24 hr T <300 ng/dl @ Week 6” value (testosterone; Androxal 6.25 mg) was 4 out of 12, the “Any T >1100 ng/dl @ Week 6” value (testosterone; Androxal 6.25 mg) was 0 out of 12 and the “24 hr T <300 ng/dl @ Week 6” value (testosterone; Androxal 12.5 mg) was 2 out of 10. The “Any T >1100 ng/dl @ Week 6” value (testosterone; Androxal 12.5 mg) was 0 out of 10, the “24 hr T <300 ng/dl @ Week 6” value (testosterone; Androxal 25 mg) was 0 out of 13 and the “Any T >1100 ng/dl @ Week 6” value (testosterone; Androxal 25 mg) was 0 out of 13. The “morning testosterone after the seven day follow-up (in words)” value (testosterone; all Androxal arms (6.25, 12.5, 25 mg)) was “improved morning testosterone compared to baseline”, the mean serum testosterone (serum testosterone) was “statistically significant rise” and the “serum total testosterone in the follow-up period” value (total testosterone; 7-10 days after cessation of daily oral treatment) was “unexpectedly remained high”. For the same molecule, the mean total testosterone (total testosterone; hypogonadal men, Androxal 50 mg, after 15 days) was 589 ± 172 ng/dL, the “mean increase in testosterone from baseline” value (shortened to “mean increase in testosterone”) (total testosterone; hypogonadal men, Androxal high dose (50 mg)) was 294 ng/dL and the “mean increase in testosterone” value (total testosterone; hypogonadal men, Androxal low dose (12.5 mg)) was 169 ng/dL. For the same molecule, the “mean increase in testosterone” value (total testosterone; hypogonadal men, Androxal mid dose (25 mg)) was 247 ng/dL, the tolerability [3] was “well tolerated by all subjects” and the “tolerability compared to placebo” value [4] was “generally well tolerated”.

In the case of `CCN(CC)CCOc1ccc(C(=C(Cl)c2ccccc2)c2ccccc2)cc1` [Clomid, clomiphene citrate], the ALT/SGPT (in vivo) was “out of range low at the end of the study”, the “BUN and BUN/creatinine” value (in vivo) was “altered during the study” and the serum carbon dioxide (in vivo) was “higher than reference values”. For the same molecule, the serum glucose (in vivo, 1.5 mg/kg) was “within the normal range”, the “effect on total serum testosterone (in words)” value (total serum testosterone) was “more variable total testosterone levels on day 6 and later” and the “Serum Testosterone Levels, 6 days” value (total serum testosterone; listed as CLO) was 940.97 ng/dL and 585.92 ng/dL and 151.12 ng/dL. The “Serum Testosterone Levels, 12 days” value (total serum testosterone; listed as CLO) was 891.5 ng/dL and 555.6 ng/dL and 318.9 ng/dL, the “Serum Testosterone Levels, wash-out” value (total serum testosterone; listed as CLO) was 150.9 ng/dL and 316.3 ng/dL and 143.6 ng/dL and the “Serum Testosterone Levels, baseline” value (total serum testosterone; listed as CLO) was 79.01 ng/dL and 97.55 ng/dL and 158.06 ng/dL. For the same molecule, the “Serum Testosterone Levels, 0 day” value (total serum testosterone; listed as CLO) was 76.15 ng/dL and 305.24 ng/dL and 102.94 ng/dL, the “Serum Testosterone Levels, 6 days, group mean” value (total serum testosterone) was 559.3 ng/dL and the “Serum Testosterone Levels, 12 days, group mean” value (total serum testosterone) was 588.7 ng/dL. The “Serum Testosterone Levels, wash-out, group mean” value (total serum testosterone) was 203.6 ng/dL, the “Serum Testosterone Levels, baseline, group mean” value (total serum testosterone) was 111.5 ng/dL and the “Serum Testosterone Levels, 0 day, group mean” value (total serum testosterone) was 161.4 ng/dL. The “effect on serum cholesterol levels (in words)” value (serum cholesterol) was “slight increase”.

With `CCN(CC)CCOc1ccc(/C(=C(/Cl)c2ccccc2)c2ccccc2)cc1` [Enclomid, trans-Clomid] the “serum prolactin (PRL) during the study” value (serum prolactin (PRL)) was “decrease in serum prolactin (PRL)”, the ALT/SGPT (in vivo) was “within the normal range” and the “BUN and BUN/creatinine” value (in vivo) was “altered during the study”. The “per cent of granulocytes in the blood” value (in vivo) was “lowering the per cent of granulocytes in the blood”, the platelet count (in vivo) was “pushed the platelet count to its normal male level” and the “serum alkaline phosphatase (ALP)” value (in vivo) was “decreased in value”. The serum anion gap (in vivo) was “raised this parameter towards normal values”, the “lymphocyte count and per cent lymphocytes” value (in vivo, 1.5 mg/kg) was “Both the count and per cent lymphocytes in the population increase” and the “red blood cell population” value (in vivo, 1.5 mg/kg) was “substantive effects on the red blood cell population”. For the same molecule, the serum glucose (in vivo, 1.5 mg/kg) was “no increases with treatment”, the “effect on total serum testosterone (in words)” value (total serum testosterone) was “significantly and statistically raised total serum testosterone on days 6 and 12” and the “Serum Testosterone Levels, 6 days” value (total serum testosterone) was 1223.8 ng/dL and 1128.2 ng/dL and 1081.1 ng/dL. For the same molecule, the “Serum Testosterone Levels, 12 days” value (total serum testosterone) was 633.6 ng/dL and 1466 ng/dL and 1166 ng/dL, the “Serum Testosterone Levels, wash-out” value (total serum testosterone) was 307.2 ng/dL and 399.2 ng/dL and 271 ng/dL and the “Serum Testosterone Levels, baseline” value (total serum testosterone) was 64.57 ng/dL and 166.86 ng/dL and 170.45 ng/dL. The “Serum Testosterone Levels, 0 day” value (total serum testosterone) was 74.96 ng/dL and 133.59 ng/dL and 106.47 ng/dL, the “Serum Testosterone Levels, 6 days, group mean” value (total serum testosterone) was 1144.4 ng/dL and the “Serum Testosterone Levels, 12 days, group mean” value (total serum testosterone) was 1088.5 ng/dL. For the same molecule, the “Serum Testosterone Levels, wash-out, group mean” value (total serum testosterone) was 325.8 ng/dL, the “Serum Testosterone Levels, baseline, group mean” value (total serum testosterone) was 134.0 ng/dL and the “Serum Testosterone Levels, 0 day, group mean” value (total serum testosterone) was 105.0 ng/dL. For the same molecule, the “decrease in serum cholesterol levels” value (serum cholesterol) was 8%.

With `CCN(CC)CCOc1ccc(/C(=C(\Cl)c2ccccc2)c2ccccc2)cc1` [Zuclomid, cis-Clomid] the hematocrit (baboons, 1.5 mg/kg for 12 days) was “demonstrated a statistical difference”, the “red blood cell population” value (baboons, 1.5 mg/kg for 12 days) was “substantive effects on the red blood cell population” and the serum glucose (baboons, 1.5 mg/kg for 12 days) was “within the normal range”. The serum carbon dioxide (baboons, day 12) was “higher than reference values”, the “serum alkaline phosphatase (ALP)” value (baboons, following treatment) was “not elevated” and the ALT/SGPT (baboons, over the treatment period / end of the study) was “within the normal range”. For the same molecule, the “effect on total serum testosterone (in words)” value (total serum testosterone) was “did not raise total serum testosterone to any extent”, the “Serum Testosterone Levels, 6 days” value (total serum testosterone) was 137.51 ng/dL and 169.98 ng/dL and 227.95 ng/dL and the “Serum Testosterone Levels, 12 days” value (total serum testosterone) was 314.5 ng/dL and 406.1 ng/dL and 353.0 ng/dL. The “Serum Testosterone Levels, wash-out” value (total serum testosterone) was 359.7 ng/dL and 860.5 ng/dL and 274.1 ng/dL, the “Serum Testosterone Levels, baseline” value (total serum testosterone) was 124.84 ng/dL and 104.66 ng/dL and 282.29 ng/dL and the “Serum Testosterone Levels, 0 day” value (total serum testosterone) was 210.4 ng/dL and 67.37 ng/dL and 904.82 ng/dL. For the same molecule, the “Serum Testosterone Levels, 6 days, group mean” value (total serum testosterone) was 178.5 ng/dL, the “Serum Testosterone Levels, 12 days, group mean” value (total serum testosterone) was 357.9 ng/dL and the “Serum Testosterone Levels, wash-out, group mean” value (total serum testosterone) was 498.1 ng/dL. The “Serum Testosterone Levels, baseline, group mean” value (total serum testosterone) was 170.6 ng/dL, the “Serum Testosterone Levels, 0 day, group mean” value (total serum testosterone) was 394.2 ng/dL and the “increase in serum cholesterol levels” value (serum cholesterol) was 22%.
